Experiment [1] relates to lasered hypertensive cynomolgus monkeys. As to conditions: cited from earlier work.
Experiment [2] relates to glaucomatous beagles. Put plainly: IOP changes in glaucomatous beagles after travoprost instillations. It is filed as in vivo. From the text: (§1) A pharmacodynamic study performed in twelve glaucomatous beagles evaluated the changes in intraocular pressure (IOP) and pupil diameter (PD) after instillations of 0.033, 0.0033, 0.001, 0.00033, and 0.0001% travoprost in multiple single-dose studies.

In experiment [3] the test system is subjects with primary open-angle glaucoma or ocular hypertension. Put plainly: IOP in subjects with primary open-angle glaucoma or ocular hypertension. It is filed as in vivo, human. As to conditions: patients. From the text:
Patient population was controlled ocular hypertension or primary open-angle glaucoma; open, normal anterior chamber angles on gonioscopy. Primary outcomes were as follows. Diurnal IOP (8 AM, 10 AM, 4 PM) at Baseline. Day 14. Day 42. Day 85, Month 4 and Month 6. Intraocular pressure at 8 AM at Day 1. Day 3. Day 7 and Day 28. Safety evaluations, including adverse event reporting, ocular comfort, global tolerance, BCVA, endothelial cell counts, and pachymetry.

Experiment [4] deals with glaucomatous beagles. Put plainly: Pupil diameter changes in glaucomatous beagles after travoprost instillations. The class given is in vivo.
Text: as §1

These results are taken from patent US20240165018A1, “HYDROGEL IMPLANTS FOR LOWERING INTRAOCULAR PRESSURE” (OCULAR THERAPEUTIX, INC., priority 2019, published 2024).

Like-named read-outs stand apart in the source and are kept apart here. Some results are limits rather than exact numbers.

Regarding `CC(C)OC(=O)CCC/C=C\C[C@@H]1[C@@H](/C=C/[C@@H](O)COc2cccc(C(F)(F)F)c2)[C@H](O)C[C@@H]1O` [travoprost], the IOP lowering result in experiment [1] (continued twice a day dosing at 0.1 μg, after doses 4 and 5) was “significant lowering of IOP”; in experiment [1] (single dose of 0.1 μg) it was “did not significantly lower IOP”. Besides, in experiment [1] (single dose of 0.3 μg), the IOP reduction was 19-26%. The “effect on IOP” value with glaucomatous beagles [2] (0.0001% concentration) is listed as “limited IOP changes”; in the experiment with glaucomatous beagles [2] (concentrations of 0.00033, 0.001, and 0.0033%, single-dose instillation) it was “significantly lowered”. Moreover, in the experiment on glaucomatous beagles [2] (dog, in vivo), the “dosage strength that maintained IOP reduction for 24 hours” value was not below 0.001%. Besides, the “onset of decrease in mean IOP following administration” value in experiment [3] is on record as “as early as two days”. Further, in the experiment with glaucomatous beagles [4] (0.0001% concentration), the PD changes result is given as “still significant”. Also, the “pupil constriction maintained for 24 hours” value with glaucomatous beagles [4] (all dosage strengths) was “no dosage strength maintained pupil constriction for 24 hours”. The “effect on pupil diameter (PD)” value with glaucomatous beagles [4] (concentrations of 0.00033, 0.001, and 0.0033%) is “significantly lowered”.
